The results in this text go back to patent US20250228954A1, “Designing Antisense Oligonucleotide Delivery Peptides by Interpretable Machine Learning” (Sarepta Therapeutics, Inc., priority 2020, published 2025).

Square brackets hold non-standard residues; d marks the D form. Ends that are not written are not given here. Ahx = NCCCCCC(=O)O; βAla = NCCC(=O)O

The subject of data set [1] is HeLa 654 cells. As to the kind of experiment: HeLa-654 eGFP assay (corrective splicing / exon skipping by PMO IVS2-654). Type of data set: cell-based, human. To be noted: 5 μM, 22 h; for FOLD OVER PMO: eGFP fluorescence of PMO-peptide conjugate relative to unconjugated PMO. How it is done: With the 36 constructs synthesized, the ability to modulate PMO activity using the modified HeLa cell assay was tested. The HeLa-654 cells were stably transfected to express a nonfluorescent eGFP protein. The eGFP gene is interrupted by a mutant intron from the human β-globin gene (IVS2-654). The insertion alters pre-mRNA splicing to cause retention of a fragment in the mature mRNA that results in a nonfluorescent protein. PMO IVS2-654 base-pairs with the B-globin insertion, modifies mRNA splicing, and thereby leads to expression of fluorescent eGFP.
For treatment, the crude reaction mixture was diluted to 5 μM in media. The concentration of the modular construct was calculated based on the original concentration of the module 1-2 conjugate mixed in the reaction. Using media containing 10% fetal bovine serum (FBS), the cells were treated with each construct for 22 hours, after which the cellular fluorescence was measured by flow cytometry.
From the lists of hundreds of predicted peptide sequences, twenty candidates were selected that varied in length, charge, and predicted activity to synthesize and test. Just as with the PMO-peptide library, the PMO-Mach constructs were first tested for PMO delivery in the HeLa 654 assay at 5 μM in complete media for 22 hours and analyzed by flow cytometry (FIG. 14). Experiments were conducted using three technical triplicates and two or three biological replicates.
(§1) HeLa 654 cells were maintained in MEM supplemented with 10% (v/v) fetal bovine serum (FBS) and 1% (v/v) penicillin-streptomycin at 37° C. and 5% CO2. Eighteen hours prior to treatment, the cells were plated at a density of 5,000 cells per well in a 96-well plate in MEM supplemented with 10% FBS and 1% penicillin-streptomycin. The day of the experiment, the 384 well plate containing the crude reaction mixtures in DMSO was diluted to 100 μM by the addition of 16.8 μL of PBS to the 3.2 μL reaction mixture. Then, each construct was diluted to 5 μM in MEM supplemented with 10% FBS and 1% penicillin-streptomycin. Cells were incubated with each conjugate at a concentration of 5 μM for 22 hours at 37° C. and 5% CO2. Next, the treatment media was aspirated the cells were incubated with Trypsin-EDTA 0.25% for 15 min at 37° C. and 5% CO2, washed 1× with PBS, and resuspended in PBS with 2% FBS and 2 μg/mL propidium iodide. Flow cytometry analysis was carried out on a BD LSRII flow cytometer. Gates were applied to the data to ensure that cells that were highly positive for propidium iodide or had forward/side scatter readings that were sufficiently different from the main cell population were excluded. Each sample was capped at 5,000 gated events.
Analysis was conducted using Graphpad Prism 7. For each sample, the mean fluorescence intensity and the number of gated cells was measured (FIGS. 8 and 9) and the intensity multiplied by the cell number was calculated (FIG. 7).

The test system of data set [2] is HeLa 654 cells. As to the kind of experiment: Cytotoxicity by gated cell count and propidium iodide staining in flow cytometry. In kind it is cell-based, human. The settings on record: at the concentrations tested in dose-response, 22 h.
Description: The different modules led to several noticeable trends in the level of cellular fluorescence (FIG. 6). When module 2 was DPV6, the overall construct consistently led to high fluorescence, regardless of which peptides were placed in module 3 and 4. However, when either pVEC or TP10 was placed in module 2, minor cellular fluorescence was observed. A gated cell count was used during flow cytometry as an indirect read-out to control for the toxicity of the compounds. Highly toxic compounds led to a reduction in overall cell count and non-viable cells were gated out based upon propidium iodide staining. In this experiment, it was observed that when the module 3 peptide was the nuclear localization sequence KRVK, lower cell counts were consistently observed.
In the same format as described above, HeLa 654 cells were treated with varying concentrations of Mach 2, 3, 4, and 7 for 22 hours and analyzed by flow cytometry.
as §1

On to `CSCC[C@H](NC(=O)[C@H](CCCCN)NC(=O)[C@H](CC(C)C)NC(=O)[C@H](CC(N)=O)NC(=O)[C@H](CC(N)=O)NC(=O)[C@H](CCCCN)NC(=O)[C@H](CC(C)C)NC(=O)[C@H](CC(N)=O)NC(=O)[C@H](CCCCN)NC(=O)[C@H](CCCCN)NC(=O)[C@H](CCCCN)NC(=O)[C@H](C)NC(=O)[C@H](CC(N)=O)NC(=O)[C@H](CCCNC(=N)N)NC(=O)[C@H](CC(C)C)NC(=O)[C@@H]1CCCN1C(=O)[C@@H]1CCCN1C(=O)CCCCn1nnc2c1-c1ccccc1N(C(=O)CCCCC(=O)N1C[C@@H](COP(=O)(N(C)C)N3C[C@@H](COP(=O)(N(C)C)N4C[C@@H](COP(=O)(N(C)C)N5C[C@@H](COP(=O)(N(C)C)N6C[C@@H](COP(=O)(N(C)C)N7C[C@@H](COP(=O)(N(C)C)N8C[C@@H](COP(=O)(N(C)C)N9C[C@@H](COP(=O)(N(C)C)N%10C[C@@H](COP(=O)(N(C)C)N%11C[C@@H](COP(=O)(N(C)C)N%12C[C@@H](COP(=O)(N(C)C)N%13C[C@@H](COP(=O)(N(C)C)N%14C[C@@H](COP(=O)(N(C)C)N%15C[C@@H](COP(=O)(N(C)C)N%16C[C@@H](COP(=O)(N(C)C)N%17C[C@@H](COP(=O)(N(C)C)N%18C[C@@H](COP(=O)(N(C)C)N%19C[C@@H](COP(=O)(N(C)C)N%20CCN(C(=O)OCCOCCOCCO)CC%20)O[C@@H](n%20cnc%21c(=O)[nH]c(N)nc%21%20)C%19)O[C@@H](n%19ccc(N)nc%19=O)C%18)O[C@@H](n%18cc(C)c(=O)[nH]c%18=O)C%17)O[C@@H](n%17cnc%18c(N)ncnc%18%17)C%16)O[C@@H](n%16cc(C)c(=O)[nH]c%16=O)C%15)O[C@@H](n%15cc(C)c(=O)[nH]c%15=O)C%14)O[C@@H](n%14cnc%15c(N)ncnc%15%14)C%13)O[C@@H](n%13ccc(N)nc%13=O)C%12)O[C@@H](n%12ccc(N)nc%12=O)C%11)O[C@@H](n%11cc(C)c(=O)[nH]c%11=O)C%10)O[C@@H](n%10cc(C)c(=O)[nH]c%10=O)C9)O[C@@H](n9cnc%10c(N)ncnc%109)C8)O[C@@H](n8cnc9c(N)ncnc98)C7)O[C@@H](n7ccc(N)nc7=O)C6)O[C@@H](n6ccc(N)nc6=O)C5)O[C@@H](n5ccc(N)nc5=O)C4)O[C@@H](n4cnc5c(N)ncnc54)C3)O[C@@H](n3cnc4c(=O)[nH]c(N)nc43)C1)Cc1ccccc1-2)C(=O)N[C@@H](CC(=O)O)C(=O)N1CCC[C@H]1C(=O)N[C@@H](CCCCN)C(=O)N[C@@H](Cc1ccccc1)C(=O)N[C@H](C(=O)N[C@@H](CCCCN)C(=O)N[C@@H](CCCCN)C(=O)N[C@H](C(=O)N[C@@H](CCCCN)C(=O)N[C@@H](CCC(N)=O)C(=O)NCC(=O)N[C@@H](C)C(=O)N[C@@H](CC(C)C)C(=O)N[C@@H](CCCCN)C(=O)N[C@@H](CC(C)C)C(=O)N[C@@H](CC(N)=O)C(=O)N[C@@H](CCCNC(=N)N)C(=O)N[C@@H](CCCNC(=N)N)C(=O)N[C@@H](CCCCN)C(=O)N[C@@H](CCCCN)C(=O)N[C@@H](CC(N)=O)C(=O)N[C@@H](CCCNC(=N)N)C(=O)NCC(=O)N1CCC[C@H]1C(=O)N[C@@H](CCCCN)C(=O)NCC(=O)N1CCC[C@H]1C(=O)NCCCCCC(=O)N[C@@H](CCCCN)C(=O)N[C@@H](Cc1c[nH]cn1)C(=O)N[C@@H](Cc1c[nH]c2ccccc12)C(=O)N[C@H](C(=O)N[C@H](C(N)=O)[C@@H](C)O)[C@@H](C)O)C(C)C)[C@@H](C)O` (stereo partly shown) [MACH 2], for which the “FOLD OVER PMO” value in data set [1] was found to be 27. Moreover, in data set [2], the “cytotoxicity as determined by cell count and PI staining” value was “no cytotoxicity”.

As for “P1: PMO IVS2-654 conjugate of peptide KXKKQQGKKKHR (SEQ ID NO: 69) (K[Ahx]KKQQGKKKHR; also: PMO IVS2-654 conjugate)”, the “FOLD OVER PMO” value in data set [1] was found to be 2.9.

In the case of “MACH 11: PMO IVS2-654 conjugate of peptide TSNLKLHLAPPVKKKALKKPLYKAKKKKKVVSPTWXTDQEW (SEQ ID NO: 66), designed to have poor activity (TSNLKLHLAPPVKKKALKKPLYKAKKKKKVVSPTW[Ahx]TDQEW; also: PMO IVS2-654 conjugate)”, in data set [1], the “PMO delivery / activity, result in words” value is “did not significantly improve PMO delivery” and the “FOLD OVER PMO” value is 4.

As for “P11: PMO IVS2-654 conjugate of peptide KKKKKQCKKKHRWPKXXC (SEQ ID NO: 79) (KKKKKQCKKKHRWPK[Ahx][Ahx]C; cysteine pairing not given here; also: PMO IVS2-654 conjugate)”, in data set [1], the “FOLD OVER PMO” value stood at 12.9.

In the case of “MACH 6: PMO IVS2-654 conjugate of peptide ALKBRSAAKAVRWPKKAIKQASKKVAKYALKXXRKKKAASKXWLQLHWPRW (SEQ ID NO: 62) (ALK[βAla]RSAAKAVRWPKKAIKQASKKVAKYALK[Ahx][Ahx]RKKKAASK[Ahx]WLQLHWPRW; also: PMO IVS2-654 conjugate)”, in data set [1], the “FOLD OVER PMO” value amounted to 43.
